US9938272B2, “Hydrazine compound as blood coagulation factor Xa inhibitor” (NORTH CHINA PHARMACEUTICAL COMPANY., LTD., priority 2014, dated 2018)

Tests used:
Format in all cases: biochemical
human Factor Xa = human Factor Xa (Homo sapiens (Human), UniProt P00742); assay: Human factor Xa chromogenic assay; conditions: substrate S-2222, read-out: hfXa Ki
rat Factor Xa = rat Factor Xa (Rattus norvegicus (Rat), UniProt Q63207); assay: Rat factor Xa chromogenic assay; conditions: substrate S-2222, read-out: rfXa Ki
human thrombin = human thrombin (Homo sapiens (Human), UniProt P00734); assay: Human thrombin assay; conditions: substrate S-2238
human trypsin = human trypsin (Homo sapiens, UniProt P07477); assay: Human trypsin assay; conditions: substrate S-2222
prothrombinase = prothrombinase (Homo sapiens (Human), UniProt P00742); assay: Prothrombinase assay (thrombin generation); conditions: human factor Xa with human platelets, prothrombin, substrate S-2238
Chain of prothrombinase (P00742 235-488): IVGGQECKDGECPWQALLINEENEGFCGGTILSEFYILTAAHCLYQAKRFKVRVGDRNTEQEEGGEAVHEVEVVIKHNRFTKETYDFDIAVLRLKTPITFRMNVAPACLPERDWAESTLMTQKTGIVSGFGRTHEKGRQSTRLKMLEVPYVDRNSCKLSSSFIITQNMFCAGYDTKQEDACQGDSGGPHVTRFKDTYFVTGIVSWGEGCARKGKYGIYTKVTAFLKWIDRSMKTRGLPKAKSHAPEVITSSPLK
Chain of prothrombinase (P00742 41-179): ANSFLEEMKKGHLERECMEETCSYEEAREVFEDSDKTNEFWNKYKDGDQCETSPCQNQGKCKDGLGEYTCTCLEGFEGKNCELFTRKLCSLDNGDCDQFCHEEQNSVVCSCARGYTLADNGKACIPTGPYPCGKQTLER
Chain of prothrombinase (P12259 29-737 partner): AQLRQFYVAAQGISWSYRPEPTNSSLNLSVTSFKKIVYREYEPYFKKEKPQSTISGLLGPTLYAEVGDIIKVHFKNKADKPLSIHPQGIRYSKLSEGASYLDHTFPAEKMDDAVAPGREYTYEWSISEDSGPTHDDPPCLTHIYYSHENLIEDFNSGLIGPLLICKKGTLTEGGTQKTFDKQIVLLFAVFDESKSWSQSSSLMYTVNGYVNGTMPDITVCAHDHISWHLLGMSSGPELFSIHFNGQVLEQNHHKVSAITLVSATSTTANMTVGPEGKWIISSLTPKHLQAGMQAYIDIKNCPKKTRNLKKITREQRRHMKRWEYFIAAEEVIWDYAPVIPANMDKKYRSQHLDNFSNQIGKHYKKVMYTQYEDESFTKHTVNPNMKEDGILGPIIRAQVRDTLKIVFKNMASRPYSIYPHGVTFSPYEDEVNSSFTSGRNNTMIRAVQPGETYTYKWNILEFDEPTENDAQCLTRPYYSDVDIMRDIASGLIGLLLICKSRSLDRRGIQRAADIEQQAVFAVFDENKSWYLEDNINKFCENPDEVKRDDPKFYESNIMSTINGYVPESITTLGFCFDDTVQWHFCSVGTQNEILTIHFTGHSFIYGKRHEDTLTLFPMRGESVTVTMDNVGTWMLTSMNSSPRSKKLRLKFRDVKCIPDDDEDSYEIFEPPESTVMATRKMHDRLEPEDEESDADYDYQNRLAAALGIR
Chain of prothrombinase (P12259 1574-2224 partner): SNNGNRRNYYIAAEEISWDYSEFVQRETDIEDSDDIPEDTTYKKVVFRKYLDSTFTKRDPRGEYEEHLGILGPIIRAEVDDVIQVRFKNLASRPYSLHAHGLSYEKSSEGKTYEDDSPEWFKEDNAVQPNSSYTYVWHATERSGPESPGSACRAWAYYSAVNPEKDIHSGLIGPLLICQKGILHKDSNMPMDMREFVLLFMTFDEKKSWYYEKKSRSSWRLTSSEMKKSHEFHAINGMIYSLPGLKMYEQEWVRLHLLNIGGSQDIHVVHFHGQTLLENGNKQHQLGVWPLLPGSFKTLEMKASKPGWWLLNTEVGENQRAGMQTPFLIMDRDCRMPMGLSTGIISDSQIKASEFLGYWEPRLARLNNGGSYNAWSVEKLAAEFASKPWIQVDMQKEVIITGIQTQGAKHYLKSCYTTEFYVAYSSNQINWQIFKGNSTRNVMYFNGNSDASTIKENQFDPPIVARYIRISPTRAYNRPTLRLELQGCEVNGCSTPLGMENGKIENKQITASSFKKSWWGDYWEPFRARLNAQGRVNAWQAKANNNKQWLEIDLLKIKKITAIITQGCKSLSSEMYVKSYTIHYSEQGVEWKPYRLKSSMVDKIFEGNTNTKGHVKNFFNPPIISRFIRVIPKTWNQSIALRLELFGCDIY

Chain of rat Factor Xa (Q63207 232-482): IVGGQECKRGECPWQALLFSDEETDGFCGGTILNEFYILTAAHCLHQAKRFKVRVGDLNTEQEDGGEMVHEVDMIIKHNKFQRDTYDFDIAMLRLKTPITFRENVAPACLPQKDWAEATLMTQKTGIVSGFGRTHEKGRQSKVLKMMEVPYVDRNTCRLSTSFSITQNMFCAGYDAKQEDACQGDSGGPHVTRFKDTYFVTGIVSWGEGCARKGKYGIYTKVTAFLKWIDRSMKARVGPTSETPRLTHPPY
Chain of rat Factor Xa (Q63207 41-180): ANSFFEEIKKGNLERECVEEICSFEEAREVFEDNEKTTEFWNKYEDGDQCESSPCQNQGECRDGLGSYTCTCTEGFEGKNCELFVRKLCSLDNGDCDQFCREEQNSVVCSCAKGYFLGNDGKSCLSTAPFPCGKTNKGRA
Chain of human Factor Xa (P00742 235-488): as the sequence (P00742 235-488) above
Chain of human Factor Xa (P00742 41-179): as the sequence (P00742 41-179) above

Compound | Ki (human Factor Xa) | Ki (rat Factor Xa) | Ki (human thrombin) | Ki (human trypsin) | Ki (prothrombinase)
COc1ccc(-n2nc(C(N)=O)c3c2C(=O)N(C2CCN(C4CCNC4=O)CC2)CC3)cc1 (single isomer, unassigned) [Example 8b, 1-(4-Methoxyphenyl)-7-oxo-6-(1-(2-oxopyrrolidin-3-yl)piperidin-4-yl)-4,5,6,7-tetrahydro-1H-pyrazolo[3,4-c]pyridine-3-carboxamide] | ≤ 10 nM | 10 to 50 nM | ≥ 1000 nM | ≥ 1000 nM | 10 to 50 nM
COc1ccc(-n2nc(C(N)=O)cc2C(=O)NC2CCN(N3CCOCC3=O)CC2)cc1 [Example 15, 1-(4-Methoxyphenyl)-N^5-(1-(3-oxomorpholino)piperidin-4-yl)-1H-pyrazole-3,5-dicarboxamide] | 10 to 50 nM |  |  |  | 10 to 50 nM
NC(=O)c1nn(-c2ccc(OC(F)F)cc2)c2c1CCN(C1CCN(N3CCOCC3=O)CC1)C2=O [Example 11, 1-(4-(Difluoromethoxy)phenyl)-7-oxo-6-(1-(3-oxomorpholino)piperidin-4-yl)-4,5,6,7-tetra hydro-1H-pyrazolo[3,4-c]pyridine-3-carboxamide] | ≤ 10 nM | 10 to 50 nM | ≥ 1000 nM | ≥ 1000 nM | ≤ 10 nM
COc1ccc(-n2nc(C#N)c3c2C(=O)N(C2CCN(N4CCCCC4=O)CC2)CC3)cc1 [Example 5, 1-(4-Methoxyphenyl)-7-oxo-6-(2′-oxo-[1,1′-bipiperidin]-4-yl)-4,5,6,7-tetrahydro-1H-pyrazolo[3,4-c]pyridine-3-carbonitrile] | 10 to 50 nM | 10 to 50 nM | ≥ 1000 nM | ≥ 1000 nM | ≤ 10 nM
COc1ccc(-n2nc(C(F)(F)F)c3c2C(=O)N(C2CCN(N4CCCCC4=O)CC2)CC3)cc1 [Example 2, 1-(4-Methoxyphenyl)-6-(2′-oxo-[1,1′-bipiperidin]-4-yl)-3-(trifluoromethyl)-5,6-dihydro-1H-pyrazolo[3,4-c]pyridin-7(4H)-one] | ≤ 10 nM | ≤ 10 nM | ≥ 1000 nM | ≥ 1000 nM | ≤ 10 nM
NC(=O)c1nn(-c2ccc(OC(F)(F)F)cc2)c2c1CCN(C1CCN(N3CCOCC3=O)CC1)C2=O [Example 10, 7-Oxo-6-(1-(3-oxomorpholino)piperidin-4-yl)-1-(4-(trifluoromethoxy)phenyl)-4,5,6,7-tetr a hydro-1H-pyrazolo[3,4-c]pyridine-3-carboxamide] | ≤ 10 nM | 50 to 1000 nM | ≥ 1000 nM | ≥ 1000 nM | 50 to 1000 nM
CCN(C(=O)c1cc(C(N)=O)nn1-c1ccc(OC)cc1)C1CCN(N2CCOCC2=O)CC1 [Example 17, N^5-Ethyl-1-(4-methoxyphenyl)-N^5-(1-(3-oxomorpholino)piperidin-4-yl)-1H-pyrazole-3,5-dicarboxamide] | 50 to 1000 nM |  |  |  | 
COc1ccc(-n2nc(C(N)=O)c3c2C(=O)N(C2CCN(C4CCNC4=O)CC2)CC3)cc1 (single isomer, unassigned) [Example 8a, 1-(4-Methoxyphenyl)-7-oxo-6-(1-(2-oxopyrrolidin-3-yl)piperidin-4-yl)-4,5,6,7-tetrahydro-1H-pyrazolo[3,4-c]pyridine-3-carboxamide] | 50 to 1000 nM | 10 to 50 nM |  |  | 
COc1ccc(-n2nc(C(N)=O)cc2C(=O)N(C2CC2)C2CCN(N3CCOCC3=O)CC2)cc1 [Example 18, N^5-Cyclopropyl-1-(4-methoxyphenyl)-N^5-(1-(3-oxomorpholino)piperidin-4-yl)-1H-pyrazole-3,5-dicarboxamide] | 50 to 1000 nM |  |  |  | 
COc1ccc(-n2nc(C(N)=O)c3c2C(=O)N(C2C4CN(N5CCCCC5=O)CC42)CC3)cc1 (stereo not drawn) [Example 12, 1-(4-Methoxyphenyl)-7-oxo-6-(3-(2-oxopiperidin-1-yl)-3-azabicyclo[3.1.0]hexan-6-yl)-4,5,6,7-tetrahydro-1H-pyrazolo[3,4-c]pyridine-3-carboxamide] | 10 to 50 nM |  |  |  | 
COc1ccc(-n2nc(C(N)=O)cc2C(=O)NC2CCN(N3CCOCC3=O)C2)cc1 (stereo not drawn) [Example 19, 1-(4-Methoxyphenyl)-N^5-(1-(3-oxomorpholino)pyrrolidin-3-yl)-1H-pyrazole-3,5-dicarboxamide] | 50 to 1000 nM |  |  |  | 
NC(=O)c1nn(-c2ccc(Cl)cc2)c2c1CCN(C1CCN(N3CCOCC3=O)CC1)C2=O [Example 9, 1-(4-Chlorophenyl)-7-oxo-6-(1-(3-oxomorpholino)piperidin-4-yl)-4,5,6,7-tetrahydro-1H-pyrazolo[3,4-c]pyridine-3-carboxamide] | 10 to 50 nM |  |  |  | 
COc1ccc(-n2nc(C(N)=O)c3c2C(=O)N(C2C4CN(N5CCOCC5=O)CC42)CC3)cc1 (stereo not drawn) [Example 13, 1-(4-Methoxyphenyl)-7-oxo-6-(3-(3-oxomorpholino)-3-azabicyclo[3.1.0]hexan-6-yl)-4,5,6,7-tetrahydro-1H-pyrazolo[3,4-c]pyridine-3-carboxamide] | 10 to 50 nM |  |  |  | 
COc1ccc(-n2nc(C(N)=O)cc2C(=O)N(C)C2CCN(N3CCOCC3=O)CC2)cc1 [Example 16, 1-(4-Methoxyphenyl)-N^5-methyl-N^5-(1-(3-oxomorpholino)piperidin-4-yl)-1H-pyrazole-3,5-dicarboxamide] | 50 to 1000 nM |  |  |  | 

Second part, the molecule after the results:

Ki (human Factor Xa) | Ki (rat Factor Xa) | Ki (human thrombin) | Ki (human trypsin) | Ki (prothrombinase) | Compound
≤ 10 nM | ≤ 10 nM | ≥ 1000 nM | ≥ 1000 nM | ≤ 10 nM | COc1ccc(-n2nc(C(F)(F)F)c3c2C(=O)N(C2CCN(N4CCOCC4=O)CC2)CC3)cc1F [Example 28, 4-(4-(1-(3-Fluoro-4-methoxyphenyl)-7-oxo-3-(trifluoromethyl)-4,5-dihydro-1H-pyrazolo[3,4-c]pyridin-6(7H)-yl)piperidin-1-yl)morpholin-3-one]
10 to 50 nM |  |  |  |  | N#Cc1cccc(-n2nc(C(F)(F)F)c3c2C(=O)N(C2CCN(N4CCOCC4=O)CC2)CC3)c1 [Example 27, 3-(7-Oxo-6-(1-(3-oxomorpholino)piperidin-4-yl)-3-(trifluoromethyl)-4,5,6,7-tetrahydro-1H-pyrazolo[3,4-c]pyridin-1-yl)benzonitrile]
≤ 10 nM | ≤ 10 nM | ≥ 1000 nM | ≥ 1000 nM | ≤ 10 nM | Nc1noc2ccc(-n3nc(C(F)(F)F)c4c3C(=O)N(C3CCN(N5CCOCC5=O)CC3)CC4)cc12 [Example 26, 4-(4-(1-(3-Aminobenzo[d]isoxazol-5-yl)-7-oxo-3-(trifluoromethyl)-4,5-dihydro-1H-pyrazolo[3,4-c]pyridin-6(7H)-yl)piperidin-1-yl)morpholin-3-one]
50 to 1000 nM |  |  |  |  | N#Cc1cc(-n2nc(C(F)(F)F)c3c2C(=O)N(C2CCN(N4CCOCC4=O)CC2)CC3)ccc1F [Example 25, 2-Fluoro-5-(7-oxo-6-(1-(3-oxomorpholino)piperidin-4-yl)-3-(trifluoromethyl)-4,5,6,7-tetra hydro-1H-pyrazolo[3,4-c]pyridin-1-yl)benzonitrile]
≤ 10 nM | ≤ 10 nM | ≥ 1000 nM | ≥ 1000 nM | ≤ 10 nM | O=C1c2c(c(C(F)(F)F)nn2-c2ccc3cc(Cl)ccc3c2)CCN1C1CCN(N2CCOCC2=O)CC1 [Example 24, 4-(4-(1-(6-Chloronaphthalen-2-yl)-7-oxo-3-(trifluoromethyl)-4,5-dihydro-1H-pyrazolo[3,4-c]pyridin-6(7H)-yl)piperidin-1-yl)morpholin-3-one]
10 to 50 nM |  |  |  |  | NC(=O)c1cc(C(=O)NC2CCN(N3CCOCC3=O)CC2)n(C2CCOCC2)n1 [Example 20, N^5-(1-(3-Oxomorpholino)piperidin-4-yl)-1-(tetrahydro-2H-pyran-4-yl)-1H-pyrazole-3,5-dicarboxamide]
≤ 10 nM | 10 to 50 nM | ≥ 1000 nM | ≥ 1000 nM | 10 to 50 nM | NC(=O)c1cccc(-n2nc(C(F)(F)F)c3c2C(=O)N(C2CCN(N4CCOCC4=O)CC2)CC3)c1 [Example 31, 3-(7-Oxo-6-(1-(3-oxomorpholino)piperidin-4-yl)-3-(trifluoromethyl)-4,5,6,7-tetrahydro-1H-pyrazolo[3,4-c]pyridin-1-yl)benzamide]
50 to 1000 nM |  |  |  |  | N#Cc1cc(-n2nc(C(F)(F)F)c3c2C(=O)N(C2CCN(N4CCOCC4=O)CC2)CC3)ccc1OC(F)F [Example 30, 2-(Difluoromethoxy)-5-(7-oxo-6-(1-(3-oxomorpholino)piperidin-4-yl)-3-(trifluoromethyl)-4,5,6,7-tetrahydro-1H-pyrazolo[3,4-c]pyridin-1-yl)benzonitrile]
≤ 10 nM | ≤ 10 nM | ≥ 1000 nM | ≥ 1000 nM | ≤ 10 nM | O=C1c2c(c(C(F)(F)F)nn2-c2cc3ccccc3cc2F)CCN1C1CCN(N2CCOCC2=O)CC1 [Example 29, 4-(4-(1-(3-Fluoronaphthalen-2-yl)-7-oxo-3-(trifluoromethyl)-4,5-dihydro-1H-pyrazolo[3,4-c]pyridin-6(7H)-yl)piperidin-1-yl)morpholin-3-one]
50 to 1000 nM |  |  |  |  | COC1CCC(n2nc(C(N)=O)cc2C(=O)NC2CCN(N3CCOCC3=O)CC2)CC1 (stereo not drawn) [Example 22, 1-(4-Methoxycyclohexyl)-N^5-(1-(3-oxomorpholino)piperidin-4-yl)-1H-pyrazole-3,5-dicarboxamide]
50 to 1000 nM |  |  |  |  | NC(=O)c1cc(-n2nc(C(F)(F)F)c3c2C(=O)N(C2CCN(N4CCOCC4=O)CC2)CC3)ccc1F [Example 32, 2-Fluoro-5-(7-oxo-6-(1-(3-oxomorpholino)piperidin-4-yl)-3-(trifluoromethyl)-4,5,6,7-tetra hydro-1H-pyrazolo[3,4-c]pyridin-1-yl)benzamide]
50 to 1000 nM |  |  |  |  | NC(=O)c1cc(-n2nc(C(F)(F)F)c3c2C(=O)N(C2CCN(N4CCOCC4=O)CC2)CC3)ccc1OC(F)F [Example 33, 2-(Difluoromethoxy)-5-(7-oxo-6-(1-(3-oxomorpholino)piperidin-4-yl)-3-(trifluoromethyl)-4,5,6,7-tetrahydro-1H-pyrazolo[3,4-c]pyridin-1-yl)benzamide]
50 to 1000 nM |  |  |  |  | CS(=O)(=O)N1CCC(n2nc(C(N)=O)cc2C(=O)NC2CCN(N3CCOCC3=O)CC2)CC1 [Example 21, 1-(1-(Methylsulfonyl)piperidin-4-yl)-N^5-(1-(3-oxomorpholino)piperidin-4-yl)-1H-pyrazole-3,5-dicarboxamide]
